The values below come from patent publication US7070803B2 (Nycomed Austria GmbH, priority 2000, dated 2006).

The nature of series [1]: Absorption of midodrine from the colon (plasma levels). Conditions: human, in vivo, tmax of desglymidodrine after colon absorption, midodrine absorbed in the colon.
Series [2] in a line: Plasma pharmacokinetics after oral intake of midodrine (plain tablet / solution). The following applies: human, in vivo. The source says: Considering the chronic nature of the diseases in question, which requires a long-term treatment as well as the correlation between plasma levels and the incidence and severity of adverse events, the development of a controlled release form is highly desired.

The conditions of series [3]: doses used in clinical practise (10 mg t.i.d.); cited from earlier work.

Consider `COc1ccc(OC)c(C(O)CN)c1` (stereo not drawn) [desglymidodrine, alpha-(aminomethyl)-2,5-dimethoxy-benzenemethanol], for which the time to peak (Tmax) in series [1] was about 3 h; in series [2], 1 h. As to `COc1ccc(OC)c(C(O)CNC(=O)CN)c1` (stereo not drawn) [midodrine, 2-amino-N-[2-(2,5-dimethoxyphenyl)-2-hydroxyethyl]-acetamide], the “effect on standing blood pressure” value in series [3] is listed as “significantly increase standing blood pressure”.

As usually defined, the Tmax is the time from dosing to the highest level.
